Legend:
[1] = molecular target: T1, Adrenergic receptor alpha-2 (Rattus norvegicus, UniProt P22086+P19328+P22909); assay: Inhibitory activity against [3H]yohimbine binding to Alpha-2 adrenergic receptor in rat cortex
T1 sequence (P22086 whole entry): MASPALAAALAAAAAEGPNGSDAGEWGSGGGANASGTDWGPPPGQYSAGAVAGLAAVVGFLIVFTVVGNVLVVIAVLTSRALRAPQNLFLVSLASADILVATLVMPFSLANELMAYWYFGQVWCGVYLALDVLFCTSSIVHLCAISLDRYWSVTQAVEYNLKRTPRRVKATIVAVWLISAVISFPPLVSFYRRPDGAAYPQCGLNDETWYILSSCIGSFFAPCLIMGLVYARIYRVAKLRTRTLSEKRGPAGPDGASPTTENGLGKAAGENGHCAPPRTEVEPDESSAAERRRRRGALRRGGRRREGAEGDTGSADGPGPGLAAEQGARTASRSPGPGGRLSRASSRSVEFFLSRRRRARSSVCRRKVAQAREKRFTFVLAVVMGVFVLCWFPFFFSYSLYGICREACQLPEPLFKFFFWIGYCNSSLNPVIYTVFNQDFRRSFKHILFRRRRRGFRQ
T1 sequence (P19328 whole entry): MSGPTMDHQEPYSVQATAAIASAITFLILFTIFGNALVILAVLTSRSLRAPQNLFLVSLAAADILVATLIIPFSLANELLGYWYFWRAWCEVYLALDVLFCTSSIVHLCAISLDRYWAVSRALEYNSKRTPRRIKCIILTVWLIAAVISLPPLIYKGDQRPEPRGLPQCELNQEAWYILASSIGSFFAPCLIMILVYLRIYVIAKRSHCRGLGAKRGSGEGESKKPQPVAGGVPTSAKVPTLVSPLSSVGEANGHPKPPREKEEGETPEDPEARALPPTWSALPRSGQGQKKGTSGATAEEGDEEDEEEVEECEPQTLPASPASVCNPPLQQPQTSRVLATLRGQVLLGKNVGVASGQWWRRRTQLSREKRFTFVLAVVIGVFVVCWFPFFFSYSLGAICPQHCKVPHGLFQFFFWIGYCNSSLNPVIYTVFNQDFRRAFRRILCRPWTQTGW
T1 sequence (P22909 whole entry): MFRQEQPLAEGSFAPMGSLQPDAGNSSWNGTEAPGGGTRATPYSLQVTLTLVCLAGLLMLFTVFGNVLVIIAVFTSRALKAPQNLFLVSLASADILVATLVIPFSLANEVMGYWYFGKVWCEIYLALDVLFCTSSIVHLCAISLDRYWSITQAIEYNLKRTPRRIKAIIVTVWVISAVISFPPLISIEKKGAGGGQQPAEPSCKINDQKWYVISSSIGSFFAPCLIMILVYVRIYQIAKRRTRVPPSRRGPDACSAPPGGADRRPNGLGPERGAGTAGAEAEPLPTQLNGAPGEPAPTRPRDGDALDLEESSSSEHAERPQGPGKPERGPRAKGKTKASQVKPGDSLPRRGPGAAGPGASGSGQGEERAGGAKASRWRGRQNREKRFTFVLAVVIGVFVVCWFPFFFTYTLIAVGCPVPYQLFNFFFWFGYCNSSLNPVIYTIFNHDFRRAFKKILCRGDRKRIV

Rattus norvegicus [2] = organism: Rattus norvegicus; assay: Inhibitory activity against [3H]norepinephrine (NE) uptake in rat whole brain; type: functional
[3] = molecular target: Voltage-dependent L-type calcium channel subunit alpha-1C (Rattus norvegicus, UniProt P22002); assay: Inhibition of [3H]nitrendipine binding to [Ca2+] channel of rat heart
Rattus norvegicus [4] = organism: Rattus norvegicus; assay: Inhibitory activity against [3H]dopamine uptake in rat striatum; type: functional
[5] = molecular target: Serotonin 2 (5-HT2) receptor (Rattus norvegicus, UniProt P30994+P08909+P14842); assay: Inhibitory activity against [3H]spiroperidol binding to 5-HT2 receptor in rat cortex
Rattus norvegicus [6] = organism: Rattus norvegicus; assay: Inhibitory activity against [3H]5-HT uptake in rat whole brain; type: functional
[7] = molecular target: Kappa-type opioid receptor (Cavia porcellus, UniProt P41144); assay: Inhibitory activity against [3H]bremazocine binding to kappa opioid receptor in guinea pig cerebellum; type: tissue-based
Kappa-type opioid receptor, sequence (P41144 whole entry): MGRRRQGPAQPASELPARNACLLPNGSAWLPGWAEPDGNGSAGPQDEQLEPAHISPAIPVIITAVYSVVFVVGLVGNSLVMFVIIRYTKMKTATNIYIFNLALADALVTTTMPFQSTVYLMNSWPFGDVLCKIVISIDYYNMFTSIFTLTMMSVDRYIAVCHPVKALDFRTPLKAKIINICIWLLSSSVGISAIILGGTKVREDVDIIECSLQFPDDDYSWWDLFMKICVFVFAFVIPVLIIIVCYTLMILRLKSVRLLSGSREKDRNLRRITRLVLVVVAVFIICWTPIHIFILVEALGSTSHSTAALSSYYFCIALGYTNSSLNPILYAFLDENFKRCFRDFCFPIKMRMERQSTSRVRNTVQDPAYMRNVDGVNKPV

Voltage-dependent L-type calcium channel subunit alpha-1C, sequence (P22002 whole entry): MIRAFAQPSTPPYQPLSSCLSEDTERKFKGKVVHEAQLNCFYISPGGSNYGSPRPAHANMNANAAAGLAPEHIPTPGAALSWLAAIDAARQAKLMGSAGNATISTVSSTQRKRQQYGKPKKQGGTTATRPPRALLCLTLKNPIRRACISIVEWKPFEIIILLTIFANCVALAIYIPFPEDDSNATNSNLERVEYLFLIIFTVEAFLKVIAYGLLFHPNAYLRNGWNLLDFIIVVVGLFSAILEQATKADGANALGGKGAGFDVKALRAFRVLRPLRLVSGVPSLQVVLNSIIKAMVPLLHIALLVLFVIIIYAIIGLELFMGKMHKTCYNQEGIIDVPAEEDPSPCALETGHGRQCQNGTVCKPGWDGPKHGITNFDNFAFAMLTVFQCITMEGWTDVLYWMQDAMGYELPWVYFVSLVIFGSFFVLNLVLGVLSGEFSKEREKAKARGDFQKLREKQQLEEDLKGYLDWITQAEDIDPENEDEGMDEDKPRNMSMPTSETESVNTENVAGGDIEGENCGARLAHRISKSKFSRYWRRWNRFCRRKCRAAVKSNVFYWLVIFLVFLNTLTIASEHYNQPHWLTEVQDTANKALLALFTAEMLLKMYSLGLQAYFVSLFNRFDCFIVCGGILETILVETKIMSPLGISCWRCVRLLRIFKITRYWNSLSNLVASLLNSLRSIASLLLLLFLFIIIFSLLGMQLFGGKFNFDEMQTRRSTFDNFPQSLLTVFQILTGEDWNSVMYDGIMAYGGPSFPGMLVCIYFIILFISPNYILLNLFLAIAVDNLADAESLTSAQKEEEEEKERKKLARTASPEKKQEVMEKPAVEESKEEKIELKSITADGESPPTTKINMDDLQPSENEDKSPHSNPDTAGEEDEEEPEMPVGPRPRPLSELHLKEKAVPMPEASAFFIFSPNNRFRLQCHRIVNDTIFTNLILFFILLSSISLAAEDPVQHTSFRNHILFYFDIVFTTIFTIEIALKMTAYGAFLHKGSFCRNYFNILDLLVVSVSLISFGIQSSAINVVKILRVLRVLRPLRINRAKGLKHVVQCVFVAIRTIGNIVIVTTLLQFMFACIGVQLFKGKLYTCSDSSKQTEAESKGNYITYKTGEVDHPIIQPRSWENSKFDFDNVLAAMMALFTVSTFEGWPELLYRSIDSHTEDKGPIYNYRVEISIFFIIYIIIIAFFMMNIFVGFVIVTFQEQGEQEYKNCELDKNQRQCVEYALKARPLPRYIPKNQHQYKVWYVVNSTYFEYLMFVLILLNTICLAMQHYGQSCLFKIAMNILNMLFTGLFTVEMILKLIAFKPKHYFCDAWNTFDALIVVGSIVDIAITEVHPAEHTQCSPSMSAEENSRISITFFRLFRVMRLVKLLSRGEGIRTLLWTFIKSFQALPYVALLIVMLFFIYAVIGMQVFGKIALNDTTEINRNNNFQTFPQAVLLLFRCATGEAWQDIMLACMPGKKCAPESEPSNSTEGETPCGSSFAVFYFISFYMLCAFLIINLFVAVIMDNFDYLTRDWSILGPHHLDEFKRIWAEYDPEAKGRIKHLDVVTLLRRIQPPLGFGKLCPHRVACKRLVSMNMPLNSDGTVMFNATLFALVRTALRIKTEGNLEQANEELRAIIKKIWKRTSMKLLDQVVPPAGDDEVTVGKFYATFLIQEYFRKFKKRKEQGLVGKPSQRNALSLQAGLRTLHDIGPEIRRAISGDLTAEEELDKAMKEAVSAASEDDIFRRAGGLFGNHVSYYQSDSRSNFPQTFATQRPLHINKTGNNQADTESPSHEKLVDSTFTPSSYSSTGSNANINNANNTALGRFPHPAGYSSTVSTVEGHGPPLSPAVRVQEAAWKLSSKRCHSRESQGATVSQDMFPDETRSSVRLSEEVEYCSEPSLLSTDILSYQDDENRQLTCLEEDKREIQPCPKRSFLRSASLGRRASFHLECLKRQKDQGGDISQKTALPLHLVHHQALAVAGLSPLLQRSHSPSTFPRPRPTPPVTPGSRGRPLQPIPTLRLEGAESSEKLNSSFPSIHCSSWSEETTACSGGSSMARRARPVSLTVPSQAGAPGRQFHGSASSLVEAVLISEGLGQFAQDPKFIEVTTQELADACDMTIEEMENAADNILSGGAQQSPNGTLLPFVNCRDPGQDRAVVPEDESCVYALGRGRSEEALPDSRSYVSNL

CCCN(c1ccncc1)n1ccc2ccccc21 [BESIPIRDINE]
IC50 [1]: 0.25 µM
IC50 (Rattus norvegicus [2]): 0.43 µM
IC50 [3]: > 100 µM
IC50 (Rattus norvegicus [4]): 0.41 µM
IC50 [5]: > 20 µM
IC50 (Rattus norvegicus [6]): 2.6 µM
IC50 [7]: > 10 µM

Source: ChEMBL document CHEMBL1129670, “Synthesis and structure-activity relationships of N-propyl-N-(4-pyridinyl)-1H-indol-1-amine (besipirdine) and related analogs as potential therapeutic agents for Alzheimer's disease” (J Med Chem, 1996)
